Measurements from patent publication US11672795B2, “Compositions and methods for treating pulmonary vascular disease” (UNIVERSITY OF PITTSBURGH-OF THE COMMONWEALTH SYSTEM OF …, priority 2016, dated 2023).
“Also recorded” adds a separate entry of the source. Like-named read-outs stand apart in the source and are kept apart here.

Tests used:
Assay type in all cases: in vivo, rat
[1] = test system: monocrotaline-exposed rats; assay: Histology and immunofluorescence of lung sections of monocrotaline-exposed rats; settings: for pulmonary arteriolar muscularization / pulmonary arteriolar remodeling / Ki67/PCNA positive cells in CD31/vWF+ endothelial compartment / Ki67/PCNA positive cells in α-SMA+ medial (smooth muscle) compartment: daily i.p. 10 mg/kg; for pulmonary arteriolar muscularization / pulmonary arteriolar remodeling: C968 from day 2, CB839 from day 7; for CD31/PCNA and α-SMA/PCNA double-positive cells (vascular endothelial and smooth muscle proliferation) / GLS1 vascular intensity / YAP1+ cells / vessel thickness and muscularization (vascular remodeling): daily BAPN or daily i.p. verteporfin 25 mg/kg
Method: Lung sections (5 μm) were deparaffinized and high temperature antigen retrieval was performed, followed by blocking in TBS/BSA 5%, 10% donkey serum and exposure to primary antibody and biotinylated secondary antibody (Vectastain ABC kit, Vector Labs) for immunohistochemistry or Alexa 488, 568 and 647-conjugated secondary antibodies (Thermo Fisher Scientific) for immunofluorescence. A primary antibody against YAP1 (#4912; 1/200 or sc101199; 1/50) were obtained from Cell Signaling and Santa Cruz Biotechnology respectively. Primary antibodies against, GLS1 (ab156876; 1/100), PC (ab115579; 1/100), LDHA (ab47010; 1/200) and α-SMA (ab32575; 1/1000) were purchased from Abcam. A primary antibody against CD31 (sc-1506; 1/100), was purchased from Santa Cruz Biotechnology. A primary antibody against PCNA (13-3900, 1/100) was purchased from Thermo Fisher Scientific. In most cases, color development was achieved by adding streptavidin-biotinylated alkaline phosphatase complex (Vector Labs) followed by Vector Red alkaline phosphatase substrate solution (Vector Labs). Levamisole was added to block endogenous alkaline phosphatase activity (Vector Labs). Pictures were obtained using an Olympus Bx51 microscope or ZEISS LSM Exciter confocal microscope. Small pulmonary vessels (<100 µm diameter) present in a given tissue section (>10 vessels/section) that were not associated with bronchial airways were selected for analysis (N>5 animals/group). Intensity of staining was quantified using ImageJ software (NIH). Degree of pulmonary arteriolar muscularization was assessed in paraffin-embedded lung sections stained for α-SMA by calculation of the proportion of fully and partially muscularized peripheral (<100 μm diameter) pulmonary arterioles to total peripheral pulmonary arterioles, as previously described (12). All measurements were performed blinded to condition.
(§1) To induce PH, male Sprague-Dawley rats (10-14 week old) were injected intraperitoneally with 60 mg/kg monocrotaline (Sigma-Aldrich). After two days, rats underwent intraperitoneal injection daily with 25 mg/kg of verteporfin (Active Biochemicals Company, Ltd) solubilized in 5% dimethyl sulfoxide (DMSO, Sigma-Aldrich). Two days after the last injection on day 21 post-monocrotaline injection, right heart catheterization was performed followed by harvest of lung tissue and CD31+ cells for RNA or protein extraction, paraffin embedding, or cryopreservation with OCT (Sigma-Aldrich), as we described (2).
(§2) To induce PH, male Sprague-Dawley rats (10-14 week old) were injected intraperitoneally with 60 mg/kg monocrotaline (Sigma-Aldrich). After two days, serial intraperitoneal injections were given daily of C968 (10 mg/kg, Sigma-Aldrich), and after seven days post-monocrotaline injection, serial intraperitoneal injections were given daily of CB839 (10 mg/kg, Selleck Chemicals). Two days after the last injection on day 21 post-monocrotaline injection, right heart catheterization was performed followed by harvest of lung tissue and CD31+ cells for RNA or protein extraction, paraffin embedding, or cryopreservation with OCT (Sigma-Aldrich), as we described (2).

GLS1 = settings: monocrotaline-exposed rats; for GLS1 activity in whole rat lung: daily i.p. 10 mg/kg, C968 from day 2 (prevention), CB839 from day 7 (reversal), vs vehicle; for GLS activity: daily BAPN or daily i.p. verteporfin 25 mg/kg
Method: According to the manufacturer instructions (Glutaminase Microplate Assay Kit, Cohesion Biosciences), flash frozen rat lung tissue (0.1 g/sample) was homogenized in 1 mL of assay buffer on ice and centrifuged at 8000 g 4° C. for 10 min. Protein concentration was determined by Bradford assay. Samples, normalized to total protein (100 μg), were incubated with kit reagents for 1 hr at 37° C., and absorbances were measured at 420 nm.
as §1, §2

[2] = test system: monocrotaline-exposed rats; assay: Atomic force microscopy of pulmonary arteriolar stiffness in monocrotaline-exposed rats
Method: Rat lungs were inflated with 0.025 g of OCT by g of body weight, frozen on liquid nitrogen vapor and store at −80° C. Rat lung slices (10 μm thickness) were cut out from their glass slide and the fragment of glass containing the sample was glued on the bottom of a 50 mm dish (Willco Glass Bottom Dish). Before measurements the sample was first rinsed and after covered with 4 ml of PBS 1×. The mechanical properties of the samples were studied using a BioScope Catalyst atomic force microscope (Bruker) coupled with and optical microscope (Leica DMI6000B) that enables, by phase contrast, to pinpoint the areas of interest. For each sample, from five to a maximum of 9 vessels (<100 μm diameter) were analyzed using the “Point and Shoot” method, collecting from 35 to 80 force-distance curves at just as many discrete points. The experiments of microindentation were performed in PBS using a probe with a Borosilicate Glass spherical tip (5 μm of diameter) and a cantilever with a nominal spring constant of 0.06 N/m (Novascan). Indentations were carried out using a velocity of 2 μm/s, in relative trigger mode and by setting the trigger threshold to 2 nN. The apparent Young's modulus was calculated using the NanoScope Analysis 1.50 software (Bruker), fitting the force curves to the Hertz spherical indentation model and using a Poisson's ratio of 0.4. To avoid large indentation, a minimum and a maximum Force Fit Boundary of 5% and 25% respectively of the whole force curve was taken into account for the fit.

[3] = Left ventricular function and systemic blood pressure in treated monocrotaline-exposed rats; settings: for adverse effects on left ventricular cardiac function: daily BAPN or daily i.p. verteporfin 25 mg/kg
[4] = C968 from day 2, CB839 from day 7, 10 mg/kg
[5] = C968 from day 2, CB839 from day 7, listed as CB-839, 10 mg/kg
[6] = daily i.p. 10 mg/kg C968 or CB-839, data not shown
[7] = daily BAPN or daily i.p. verteporfin 25 mg/kg

SMILES: O=C(Cc1cccc(OC(F)(F)F)c1)Nc1ccc(CCCCc2nnc(NC(=O)Cc3ccccn3)s2)nn1 [CB839]
- pulmonary arteriolar muscularization [1]: significantly decreased
- pulmonary arteriolar remodeling [1]: significantly decreased
- Ki67/PCNA positive cells in CD31/vWF+ endothelial compartment [1, 4]: reduced
- Ki67/PCNA positive cells in α-SMA+ medial (smooth muscle) compartment [1, 4]: reduced
- Ki67/PCNA positive cells in CD31/vWF+ endothelial compartment [1, 5]: decreased
- Ki67/PCNA positive cells in α-SMA+ medial (smooth muscle) compartment [1, 5]: decreased
- GLS1 activity in whole rat lung (GLS1): decreased
- pulmonary arteriolar (<100 μm diameter) stiffness, atomic force microscopy ([2]; daily CB839 vs vehicle): decreased
- adverse effects on left ventricular function [3, 6]: without adverse effects
- adverse effects on systemic blood pressure [3, 6]: without adverse effects

SMILES: CN(C)c1ccc(C2Nc3ccc4ccccc4c3C3=C2C(=O)CC(C)(C)C3)cc1Br (centres unmarked) [C968, 5-(3-Bromo-4-(dimethylamino)phenyl)-2,2-dimethyl-2,3,5,6-tetrahydrobenzo[a]phenanthridin-4(1H)-one]
- pulmonary arteriolar muscularization [1]: significantly decreased
- pulmonary arteriolar remodeling [1]: significantly decreased
- Ki67/PCNA positive cells in CD31/vWF+ endothelial compartment [1, 4]: reduced; also recorded: decreased
- Ki67/PCNA positive cells in α-SMA+ medial (smooth muscle) compartment [1, 4]: reduced; also recorded: decreased
- GLS1 activity in whole rat lung (GLS1): decreased
- adverse effects on left ventricular function [3, 6]: without adverse effects
- adverse effects on systemic blood pressure [3, 6]: without adverse effects

SMILES: N#CCCN [BAPN, β-aminoproprionitrile]
- CD31/PCNA and α-SMA/PCNA double-positive cells (vascular endothelial and smooth muscle proliferation) [1]: decreased
- GLS1 vascular intensity [1]: decreased
- YAP1+ cells [1]: decreased
- vessel thickness and muscularization (vascular remodeling) [1]: decreased; also recorded: ameliorated
- GLS activity (GLS1): decreased
- pulmonary arteriolar (<100 μm diameter) stiffness, atomic force microscopy [2, 7]: decreased
- adverse effects on left ventricular cardiac function ([3]; data not shown): without adverse effects

SMILES: C=Cc1c(C)c2cc3nc(cc4[nH]c(cc5nc(cc1[nH]2)C(C)=C5CCC(=O)O)c(CCC(=O)OC)c4C)[C@@]1(C)C3=CC=C(C(=O)OC)[C@H]1C(=O)OC [Verteporfin, 3-[(23S,24R)-14-ethenyl-5-(3-methoxy-3-oxopropyl)-22,23-bis(methoxycarbonyl)-4,10,15,24-tetramethyl-25,26,27,28-tetraazahexacyclo[16.6.1.1^3,6.1^8,11.1^13,16.0^19,24]octacosa-1,3,5,7,9,11(27),12,14,16,18(25),19,21-dodecaen-9-yl]propanoic acid]
- CD31/PCNA and α-SMA/PCNA double-positive cells (vascular endothelial and smooth muscle proliferation) [1]: decreased
- GLS1 vascular intensity [1]: decreased
- YAP1+ cells [1]: decreased
- vessel thickness and muscularization (vascular remodeling) [1]: decreased
- CD31/PCNA and α-SMA/PCNA double-positive cells (vascular endothelial and smooth muscle proliferation) ([1]; listed as verteporfin): improved
- vessel thickness and muscularization (vascular remodeling) ([1]; listed as verteporfin): reductions
- GLS activity (GLS1): decrease
- GLS activity (GLS1; listed as verteporfin): improved
- pulmonary arteriolar (<100 μm diameter) stiffness, atomic force microscopy [2, 7]: decreased
- adverse effects on left ventricular cardiac function ([3]; data not shown): without adverse effects
- adverse effects on systemic blood pressure ([3]; daily i.p. verteporfin 25 mg/kg, data not shown): without adverse effects
